Test results reported in US10689359B2, “Crystals of quinazoline derivative and preparation method therefor” (Xuanzhu Pharma Co., Ltd., priority 2015, dated 2020).

Assays:
[1] = Study on stability of Crystal form I, II and III (influencing factors; character, moisture content, relevant substances by HPLC, XRPD); type: physicochemical; details: for Increase of moisture content: 10 days vs Day 0; for Stability of the samples (conclusion): influencing factor conditions (high temperature, high moisture, light)
Method: The samples were tested for character, relevant substances, moisture content, XRPD pattern, etc. […] The samples were tested for relevant substances, content, character, moisture content, XRPD pattern, etc. During the study, the uncovered experimental samples were kept in cultured dishes in the air. […] During the study, the uncovered experimental samples were kept in cultured dishes in the air. […] With respect to relevant substances, in accordance with High Performance Liquid Chromatography in Appendix V D in Pharmacopoeia of the People's Republic of China (2010), the samples were determined by area normalization method. Instrument: High Performance Liquid Chromatographic Instrument (Agilent 1200/1260 series) Chromatographic column: chromatographic column using octylsilane chemically bonded silica as filler (HC-C8, 4.6×250 mm, 5 μm) Column temperature: 30° C. Detection wavelength: 230 nm Mobile phase: mobile phase consisting of 0.03 mol/L diammonium hydrogen phosphate/0.03 mol/L sodium perchlorate solution-acetonitrile, and reversed-phase gradient elution was employed. Flow rate: 1.0 mL/min Injection volume: 10 μL Method for determining moisture content: the moisture content was determined in accordance with First Method for Determining Moisture Content B (Coulometric Titration) in Appendix VIII M in Pharmacopoeia of the People's Republic of China (2010).

[2] = Comparison of stability between crystal forms and amorphous form, 60° C. uncovered, relevant substances by HPLC; type: physicochemical; details: for Change in total relevant substances (conclusion): 60° C. uncovered, 5 days and 10 days
Method: Instrument: High Performance Liquid Chromatographic Instrument (Agilent 1260 series) Chromatographic column: chromatographic column using octylsilane chemically bonded silica as filler (HC-C8, 4.6×250 mm, 5 μm) Column temperature: 30° C. Detection wavelength: 230 nm Mobile phase: Mobile phase consisting of 0.06 mol/L sodium dihydrogen phosphate/0.06 mol/L sodium perchlorate solution-acetonitrile, and reversed-phase gradient elution was employed. Flow rate: 1.0 mL/min Injection volume: 10 μL

[3] = Evaluation on pharmacokinetics in SD rats, intragastric administration; type: in vivo; details: 5 mg/kg; for AUC0-t / AUCinf / Cmax (maximum blood concentration) / T1/2 (drug elimination half-life) / Tmax (time to maximum blood concentration): suspension in water
Method: An amorphous form of a compound of Formula (I), the preparation method of which could be found in the particular Examples as disclosed in the international patent application (Publication No. WO 2012027960 A1).
Test animal: SD rats, male, weighed 190-250 g, 6 rats for each crystal form, purchased from Beijing Vital River Laboratory Animal Technology Co., Ltd.
Administration route: intragastric administration, at an administration dose of 5 mg/kg, and an administration volume of 10 mL/kg.
Blood collection: whole blood (about 100 μL) was collected from tail vein 10 min, 30 min, 1 h, 2 h, 4 h, 6 h, 8 h, and 24 h after administration, and added to K2EDTA-containing anticoagulation tubes. The whole blood sample was centrifuged for 6 min at 4° C., 8000 rpm in a high speed centrifuge, and plasma was separated. Plasma needed to be prepared within 30 min after blood collection, and stored at −80° C. in a refrigerator.
Plasma sample analysis: the plasma samples were analyzed by protein precipitation: to plasma (20 μL), an internal standard Gefitinib (200 μL, 50 ng/mL acetonitrile solution) was added; the resultant mixture was vortexed at 500 rpm for 5 min, and centrifuged at 4000 rpm for 20 min in a high speed centrifuge; to the supernatant (100 μL), water (100 μL) was added; the resultant mixture was mixed homogeneously under vortexing and analyzed by LC-MS/MS for blood concentration.
Calculation for PK parameters: PK parameters were calculated by using Pharsight Phoenix 6.2 software.

[4] = 10 days, 40° C./RH75% uncovered
[5] = influencing factor condition for 10 days

C=CC(=O)Nc1cc2c(Nc3ccc(F)c(Cl)c3)ncnc2cc1OCC1CC2(CCN(C)CC2)C1 [Crystal form I, N-(4-((3-chloro-4-fluorophenyl)amino)-7-((7-methyl-7-azaspiro[3.5]nonan-2-yl)methoxy)quinazolin-6-yl)acrylamide]
Character ([1]; 0 day): light yellow | Crystal form ([1]; 0 day): crystal- | Moisture content ([1]; 0 day): 5.0% | Relevant substance ([1]; 0 day): 0.78% | Change in impurities ([1]; 60° C.-uncovered, UV light, 10 days): increased to some extent | Character ([1]; 5 days, 40° C./RH75% covered): light yellow | Crystal form ([1]; 5 days, 40° C./RH75% covered): the same | Moisture content ([1]; 5 days, 40° C./RH75% covered): 5.1% | Relevant substance ([1]; 5 days, 40° C./RH75% covered): 0.74% | Character ([1]; 5 days, 40° C./RH75% uncovered): light yellow | Crystal form ([1]; 5 days, 40° C./RH75% uncovered): the same | Moisture content ([1]; 5 days, 40° C./RH75% uncovered): 5.4% | Relevant substance ([1]; 5 days, 40° C./RH75% uncovered): 0.76% | Character ([1]; 5 days, 60° C. covered): light yellow | Crystal form ([1]; 5 days, 60° C. covered): the same | Moisture content ([1]; 5 days, 60° C. covered): 5.0% | Relevant substance ([1]; 5 days, 60° C. covered): 0.75% | Character ([1]; 5 days, 60° C. uncovered): light yellow | Crystal form ([1]; 5 days, 60° C. uncovered): the same | Moisture content ([1]; 5 days, 60° C. uncovered): 4.9% | Relevant substance ([1]; 5 days, 60° C. uncovered): 1.3% | Character ([1]; 5 days, RH-75%): light yellow | Crystal form ([1]; 5 days, RH-75%): the same | Moisture content ([1]; 5 days, RH-75%): 5.5% | Relevant substance ([1]; 5 days, RH-75%): 0.78% | Character ([1]; 5 days, RH-92.5%): light yellow | Crystal form ([1]; 5 days, RH-92.5%): the same | Moisture content ([1]; 5 days, RH-92.5%): 5.5% | Relevant substance ([1]; 5 days, RH-92.5%): 0.78% | Character ([1]; 5 days, visible light): light yellow | Crystal form ([1]; 5 days, visible light): the same | Moisture content ([1]; 5 days, visible light): 5.1% | Relevant substance ([1]; 5 days, visible light): 0.74% | Character ([1]; 10 days, 40° C./RH75% covered): light yellow | Crystal form ([1]; 10 days, 40° C./RH75% covered): the same | Moisture content ([1]; 10 days, 40° C./RH75% covered): 4.9% | Relevant substance ([1]; 10 days, 40° C./RH75% covered): 0.73% | Character [1, 4]: light yellow | Crystal form [1, 4]: the same | Moisture content [1, 4]: 5.2% | Relevant substance [1, 4]: 0.79% | Character ([1]; 10 days, 60° C. covered): light yellow | Crystal form ([1]; 10 days, 60° C. covered): the same | Moisture content ([1]; 10 days, 60° C. covered): 4.8% | Relevant substance ([1]; 10 days, 60° C. covered): 0.78% | Character ([1]; 10 days, 60° C. uncovered): light yellow | Crystal form ([1]; 10 days, 60° C. uncovered): the same | Moisture content ([1]; 10 days, 60° C. uncovered): 4.6% | Relevant substance ([1]; 10 days, 60° C. uncovered): 1.4% | Character ([1]; 10 days, RH-75%): light yellow | Crystal form ([1]; 10 days, RH-75%): the same | Moisture content ([1]; 10 days, RH-75%): 5.7% | Relevant substance ([1]; 10 days, RH-75%): 0.70% | Character ([1]; 10 days, RH-92.5%): light yellow | Crystal form ([1]; 10 days, RH-92.5%): the same | Moisture content ([1]; 10 days, RH-92.5%): 5.8% | Relevant substance ([1]; 10 days, RH-92.5%): 0.79% | Character ([1]; 10 days, UV light): light yellow | Crystal form ([1]; 10 days, UV light): the same | Moisture content ([1]; 10 days, UV light): 5.2% | Relevant substance ([1]; 10 days, UV light): 0.89% | Increase of moisture content ([1]; high moisture RH-75%): 0.7% | Increase of moisture content ([1]; high moisture RH-92.5%): 0.8% | Stability of the samples (conclusion) ([1]; 10 days): relatively stable | Total relevant substances ([2]; 0 day): 0.23% | Change in total relevant substances (conclusion) [2]: little increase in total relevant substances | Total relevant substances ([2]; 60° C. uncovered-5 days): 0.48% | Total relevant substances ([2]; 60° C. uncovered-10 days): 0.47% | Pharmacokinetic properties (conclusion) [3]: good pharmacokinetic properties | AUC0-t [3]: 1404 ng·h/mL | AUCinf [3]: 1414 ng·h/mL | Cmax (maximum blood concentration) [3]: 134 ng/mL | T1/2 (drug elimination half-life) [3]: 3.16 h | Tmax (time to maximum blood concentration) [3]: 4 h

C=CC(=O)Nc1cc2c(Nc3ccc(F)c(Cl)c3)ncnc2cc1OCC1CC2(CCN(C)CC2)C1 [Crystal form II, N-(4-((3-chloro-4-fluorophenyl)amino)-7-((7-methyl-7-azaspiro[3.5]nonan-2-yl)methoxy)quinazolin-6-yl)acrylamide]
Character ([1]; 0 day): light yellow | Crystal form ([1]; 0 day): Crystal | Moisture content ([1]; 0 day): 3.5% | Relevant substance ([1]; 0 day): 0.37% | Character ([1]; 5 days, 40° C./RH75% covered): light yellow | Crystal form ([1]; 5 days, 40° C./RH75% covered): the same | Moisture content ([1]; 5 days, 40° C./RH75% covered): 3.6% | Relevant substance ([1]; 5 days, 40° C./RH75% covered): 0.34% | Character ([1]; 5 days, 40° C./RH75% uncovered): light yellow | Crystal form ([1]; 5 days, 40° C./RH75% uncovered): the same | Moisture content ([1]; 5 days, 40° C./RH75% uncovered): 3.7% | Relevant substance ([1]; 5 days, 40° C./RH75% uncovered): 0.38% | Character ([1]; 5 days, 60° C. covered): light yellow | Crystal form ([1]; 5 days, 60° C. covered): the same | Moisture content ([1]; 5 days, 60° C. covered): 3.6% | Relevant substance ([1]; 5 days, 60° C. covered): 0.33% | Character ([1]; 5 days, 60° C. uncovered): light yellow | Crystal form ([1]; 5 days, 60° C. uncovered): the same | Moisture content ([1]; 5 days, 60° C. uncovered): 3.6% | Relevant substance ([1]; 5 days, 60° C. uncovered): 0.35% | Character ([1]; 5 days, RH-75%): light yellow | Crystal form ([1]; 5 days, RH-75%): the same | Moisture content ([1]; 5 days, RH-75%): 3.6% | Relevant substance ([1]; 5 days, RH-75%): 0.35% | Character ([1]; 5 days, RH-92.5%): light yellow | Crystal form ([1]; 5 days, RH-92.5%): the same | Moisture content ([1]; 5 days, RH-92.5%): 3.7% | Relevant substance ([1]; 5 days, RH-92.5%): 0.36% | Character ([1]; 5 days, light): light yellow | Crystal form ([1]; 5 days, light): the same | Moisture content ([1]; 5 days, light): 3.7% | Relevant substance ([1]; 5 days, light): 0.35% | Character ([1]; 10 days, 40° C./RH75% covered): light yellow | Crystal form ([1]; 10 days, 40° C./RH75% covered): the same | Moisture content ([1]; 10 days, 40° C./RH75% covered): 3.6% | Relevant substance ([1]; 10 days, 40° C./RH75% covered): 0.33% | Character [1, 4]: light yellow | Crystal form [1, 4]: the same | Moisture content [1, 4]: 3.8% | Relevant substance [1, 4]: 0.33% | Character ([1]; 10 days, 60° C. covered): light yellow | Crystal form ([1]; 10 days, 60° C. covered): the same | Moisture content ([1]; 10 days, 60° C. covered): 3.7% | Relevant substance ([1]; 10 days, 60° C. covered): 0.36% | Character ([1]; 10 days, 60° C. uncovered): light yellow | Crystal form ([1]; 10 days, 60° C. uncovered): the same | Moisture content ([1]; 10 days, 60° C. uncovered): 3.7% | Relevant substance ([1]; 10 days, 60° C. uncovered): 0.43% | Character ([1]; 10 days, RH-75%): light yellow | Crystal form ([1]; 10 days, RH-75%): the same | Moisture content ([1]; 10 days, RH-75%): 3.7% | Relevant substance ([1]; 10 days, RH-75%): 0.36% | Character ([1]; 10 days, RH-92.5%): light yellow | Crystal form ([1]; 10 days, RH-92.5%): the same | Moisture content ([1]; 10 days, RH-92.5%): 3.7% | Relevant substance ([1]; 10 days, RH-92.5%): 0.34% | Character ([1]; 10 days, light): light yellow | Crystal form ([1]; 10 days, light): the same | Moisture content ([1]; 10 days, light): 3.7% | Relevant substance ([1]; 10 days, light): 0.35% | Change in Crystal form (XRPD pattern test) [1, 5]: no change | Change in impurities [1, 5]: no significant change | Stability of the samples (conclusion) ([1]; 10 days): relatively stable | Total relevant substances ([2]; 0 day): 0.64% | Change in total relevant substances (conclusion) [2]: little increase in total relevant substances | Total relevant substances ([2]; 60° C. uncovered-5 days): 0.66% | Total relevant substances ([2]; 60° C. uncovered-10 days): 0.70% | Pharmacokinetic properties (conclusion) [3]: good pharmacokinetic properties | AUC0-t [3]: 1536 ng·h/mL | AUCinf [3]: 1591 ng·h/mL | Cmax (maximum blood concentration) [3]: 135 ng/mL | T1/2 (drug elimination half-life) [3]: 4.59 h | Tmax (time to maximum blood concentration) [3]: 3 h
